Assay results published in publication PMC12635456, “In Vivo Inhibition of Dipeptidyl Peptidase 4 and Neprilysin Activity Enables Measurement of GLP-1 Secretion in Male Rats” (Journal of the Endocrine Society, 2025).
Like-named read-outs stand apart in the source and are kept apart here.

Assays:
GLP-1 secretion = experiment: Oral glucose challenge without inhibitor pretreatment (GLP-1 by RIA and ELISAs); settings: oral glucose 2 g/kg, no inhibitors
Protocol: In these experiments it was possible to collect relatively large blood samples (∼500 µL), allowing measurements with a single site RIA directed at the C-terminus of the molecule. The samples were collected at time point 0, 15, 30, and 60 minutes after glucose challenge and treated as already described.
Net area under the curve (nAUC) was calculated using the trapezoid rule; baseline was set to the first data point and peaks above and below the baseline were considered. P < .05 was considered significant. Data are shown as mean ± SEM.

[1] = cited from earlier work
Text: Glucagon-like peptide-1 (GLP-1), secreted from enteroendocrine cells in the gut, enhances glucose-stimulated insulin secretion and reduces appetite.

SMILES | Increase in GLP-1 concentration 15 minutes following glucose, C-terminal RIA (GLP-1 secretion) | Increase in GLP-1 concentration 15 minutes following glucose, Mercodia total ELISA (GLP-1 secretion) | Total GLP-1 plasma concentration 15 minutes after glucose, RIA (GLP-1 secretion; in-house C-terminal RIA 89390, mean ± SEM, n = 5-6, P < .02 vs baseline) | Intact GLP-1 plasma concentration 15 minutes after glucose, Alpco ELISA (GLP-1 secretion; mean ± SEM, n = 5-6, P < .008 vs baseline) | Total GLP-1 plasma concentration 15 minutes after glucose, Mercodia ELISA (GLP-1 secretion; mean ± SEM, n = 5-6, P < .02 vs baseline) | Half-life in the circulation ([1]; humans) | Half-life in the circulation ([1]; mice) | Half-life in the circulation ([1]; rats)
OC[C@H]1OC(O)[C@H](O)[C@@H](O)[C@@H]1O (some centres unmarked) [glucose] | ~15 pmol/L | around 5 pmol/L | 43.1 ± 3.7 pmol/L | 0.8 ± 0.07 pmol/L | 10.5 ± 1.8 pmol/L |  |  | 
CC[C@H](C)[C@H](NC(=O)[C@H](Cc1ccccc1)NC(=O)[C@H](CCC(=O)O)NC(=O)[C@H](CCCCN)NC(=O)[C@H](C)NC(=O)[C@H](C)NC(=O)[C@H](CCC(N)=O)NC(=O)CNC(=O)[C@H](CCC(=O)O)NC(=O)[C@H](CC(C)C)NC(=O)[C@H](Cc1ccc(O)cc1)NC(=O)[C@H](CO)NC(=O)[C@H](CO)NC(=O)[C@@H](NC(=O)[C@H](CC(=O)O)NC(=O)[C@H](CO)NC(=O)[C@@H](NC(=O)[C@H](Cc1ccccc1)NC(=O)[C@@H](NC(=O)CNC(=O)[C@H](CCC(=O)O)NC(=O)[C@H](C)NC(=O)[C@@H](N)Cc1c[nH]cn1)[C@@H](C)O)[C@@H](C)O)C(C)C)C(=O)N[C@@H](C)C(=O)N[C@@H](Cc1c[nH]c2ccccc12)C(=O)N[C@@H](CC(C)C)C(=O)N[C@H](C(=O)N[C@@H](CCCCN)C(=O)NCC(=O)N[C@@H](CCCNC(=N)N)C(N)=O)C(C)C [GLP-1(7-36)NH2] |  |  |  |  |  | a few minutes | a few minutes | a few minutes
